Consider four molecules from patent US7741288B2, “Methods of screening of PP1-interacting polypeptides or proteins, peptides inhibiting PP1c binding to Bcl-2 proteins, Bcl-xL and Bcl-w, and uses thereof” (Institut Pasteur, priority 2002, dated 2010).

One assay concerns Bad. The assay can be described thus: Serine 136 phosphorylation of Bad in OA-treated cells, western blot. It counts as cell-based, murine. The procedure: A) Cells were treated with or without 1 μM OA in the presence or the absence of IL-4. […] Protein bands were detected using ECL.
Cells (1×10^7) were IL-4-stimulated or -deprived and lysed for 20 min at 4° C. in lysis buffer (50 mM Tris HCl pH 8, 1% NP40, 137 mM NaCl, 1 mM MgCl2, 1 mM CaCl2, 10% glycerol and protease inhibitors cocktail). Digitonin or detergent free buffers were also used for immunoprecipitation. For phosphorylation analysis, the buffer was also supplemented with phosphatase inhibitors cocktail. Lysates were immunoprecipitated with the Appropriate antibody and Protein A Sepharose was added. Alliteratively, cells were lysed in Laemmli sample buffer and protein extracts separated by SDS-PAGE, transferred to nitrocellulose, blocked and incubated with primary antibody. Membrane was washed and incubated. with PO-conjugated secondary antibody. Proteins were developed using the ECL.
As IL-4-deprivation correlates with Bad dephosphorylation and apoptosis, it was hypothesized that inhibition of phosphatase activity by okadaic acid (OA) treatment may prevent Bad dephosphorylation and apoptosis. Treatment of the cells with 1 μM OA in the absence of IL-4 prevented Bad dephosphorylation at serine 136 (FIG. 9A). […] The inhibition of Bcl-xL and Bcl-w expression upon antisense oligonucleotide treatment was estimated by Western blot.
A general note: A western blot detects proteins with antibodies after separation by electrophoresis.

Assay [1] has as its system type 1 and type 2A activities. The assay can be described thus: In vitro phosphatase assay in supernatants of Bad and Bcl-w immunoprecipitates with okadaic acid. The format is biochemical, murine. The settings on record: 10^−9 M OA. The protocol: B) Different concentrations of OA were added to Bad or Bcl-w immunoprecipitates from IL-4 stimulated cells. Phosphatase activity was estimated using ^32P phosphorylase a as substrate. The reaction was as in A. Similar results were obtained in three independent experiments. Phosphatase activity is represented as the percentage of maximal activity in untreated supernatants.
(§1) IL-4-stimulated cells (1×10^7) were lysed in lysis buffer, supernatants were immunoprecipitated with the corresponding antibody, followed by incubation with Protein A Sepharose. Immunoprecipitates were washed with phosphatase buffer (50 mM Tris HCl, pH 7.5, 0.1% 2-ME, 0.1 mM EDTA and 1 mg/ml BSA) and mixed with [^32P] phosphorylase a, diluted in phosphatase buffer supplemented with caffeine. The reaction was incubated (40 min at 30° C.), stopped with 200 μl 20% TCA and centrifuged. A total of 185 μl of the supernatant were used to estimate the generation of free phosphate liberated from [^32P] phosphorylase a.
The enzymatic activity in the immunoprecipitates was measured using ^32P-labeled phosphorylase a as substrate. It is interesting to notice that phosphatase activity detected in Bcl-xL and Bcl-w immunoprecipitates nearly corresponds to the phosphatase activity observed in Bad immunoprecipitates. […]

In the next assay the test system is TS1αβ cells. The assay can be described thus: Apoptosis by propidium iodide staining and flow cytometry. It counts as cell-based, murine. The settings on record: IL-4-deprived cells, 1 μM OA for 6 h. (In general: In flow cytometry, cells or beads pass a laser one at a time.)
In assay [2] the target is T1, PP1c (Mus musculus, UniProt P62137). The assay is described as follows: In vitro phosphatase assay in Bad or Bcl-w immunoprecipitates with okadaic acid, 32P phosphorylase a as substrate. Set-up: enzymatic activity was estimated in Bad or Bcl-w immunoprecipitates from IL-4-stimulated cells; endogenous in cells; host or cells: TS1αβ murine T cell line, IL-4-stimulated; anti-Bad or anti-Bcl-w immunoprecipitates on Protein A Sepharose. It counts as biochemical, murine. The procedure:
B) Different concentrations of OA were added to Bad or Bcl-w immunoprecipitates from IL-4 stimulated cells. Phosphatase activity was estimated using ^32P phosphorylase a as substrate. […] Phosphatase activity is represented as the percentage of maximal activity in untreated supernatants.
as §1
Target sequence in this assay (P62137 2-330): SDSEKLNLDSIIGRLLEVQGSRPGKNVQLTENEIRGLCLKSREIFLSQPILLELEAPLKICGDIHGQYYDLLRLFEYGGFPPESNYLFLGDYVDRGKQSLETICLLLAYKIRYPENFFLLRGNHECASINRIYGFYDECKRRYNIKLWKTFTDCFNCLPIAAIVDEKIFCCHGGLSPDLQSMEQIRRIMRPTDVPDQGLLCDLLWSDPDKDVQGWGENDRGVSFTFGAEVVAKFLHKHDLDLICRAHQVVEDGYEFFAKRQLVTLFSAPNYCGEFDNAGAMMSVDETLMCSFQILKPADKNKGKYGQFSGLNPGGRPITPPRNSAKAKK
Target sequence in this assay (P70345 2-193, further chain): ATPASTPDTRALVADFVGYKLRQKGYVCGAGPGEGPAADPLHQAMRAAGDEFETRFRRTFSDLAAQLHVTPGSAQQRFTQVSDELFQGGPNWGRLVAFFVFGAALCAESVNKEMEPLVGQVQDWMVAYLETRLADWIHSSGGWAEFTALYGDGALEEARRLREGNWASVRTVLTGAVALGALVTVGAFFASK
Target sequence in this assay (Q61337 whole entry, further chain): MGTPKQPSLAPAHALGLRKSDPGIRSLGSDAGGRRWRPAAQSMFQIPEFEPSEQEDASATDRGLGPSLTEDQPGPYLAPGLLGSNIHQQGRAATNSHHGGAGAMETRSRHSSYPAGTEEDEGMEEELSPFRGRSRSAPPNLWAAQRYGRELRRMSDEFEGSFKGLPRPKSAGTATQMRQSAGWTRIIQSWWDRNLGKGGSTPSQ
The enzymatic activity in the immunoprecipitates was measured using ^32P-labeled phosphorylase a as substrate. […] To confirm that this phosphatase activity was due to PP1c, enzymatic activity was estimated in Bad or Bcl-w immunoprecipitates from IL-4-stimulated cells in the presence of different okadaic acid (OA) concentrations (FIG. 5B). […] The effect of OA on phosphatase activity was also estimated in supernatants of Bad and Bcl-w immunoprecipitates.

Assay [3] addresses T2, PP1c (Homo sapiens, UniProt P62136).
T2 construct: purchased Calbiochem
The assay can be described thus: PP1c binding assay on cellulose-bound Bcl-xL or Bcl-w peptides. Particulars: membrane-immobilized peptides, anti-PP1c antibody, ECL. The text has this: Spots were detected using ECL system. […] Mutated amino acids into the motif are in bold and underlined. Similar results were obtained in two independent experiments. Peptide 1 corresponds to the PP1 binding motif of Bcl-xL and Bcl-w. Peptide 2 corresponds to the mutated PP1 binding site were V and F residues were mutated to A. FIG. 5b contains the following sequences: NWGRIVAFFSFG (SEQ ID NO: 6), NWGRIAAAFSFG (SEQ ID NO: 51): GDEFELRYRRAF (SEQ ID NO: 7). GDEGELGYGRAF (SEQ ID NO: 59): GDESELSYSRAF (SEQ ID NO: 54). GDEFELGYGRAF (SEQ ID NO: 55): GDEFELSYSRAF (SEQ ID NO: 56). GDEGELRYRRAF (SEQ ID NO: 57): GDEGELRYRRAF (SEQ ID NO: 58): GDEGELGYRRAF (SEQ ID NO: 59). GDESELSYRRAF (SEQ ID NO: 60). PNWGRLVAFFVFG (SEQ ID NO: 61): PNWGRLAAAFVFG (SEQ ID NO: 62). GDEFETRFRRTFS (SEQ ID NO: 63): GDEFETGFGRTFS (SEQ ID NO: 64). GDEFETGFGRTFS (SEQ ID NO: 65), GDEFETRFGRTFS (SEQ ID NO: 66). GDEGETGFRRTFS (SEQ ID NO: 67). GDEGETRFRRTFS (SEQ ID NO: 68). FIG. 5a contains the following sequences FSRRYR (SEQ ID NO: 5). FTARGR (SEQ ID NO: 5). FELRYR (SEQ ID NO: 5). FETRFR (SEQ ID NO: 5).
Membrane was blocked, incubated with purified PP1c and, after several washing steps, incubated with anti-PP1c antibody, followed by PO-conjugated secondary antibody. Spots were developed using the ECL system.
It has been described that R/K X V/I X F motif is shared by most of the PP1c targeting subunits (21, 23). […]

Assay [4] deals with T3, Bcl-xL/PP1c/Bad and Bcl-w/PP1c/Bad (Mus musculus, UniProt P62137).
T3 construct: Lysates from IL-4-stimulated cells were immunoprecipitated with anti-Bad antibody and Protein A Sepharose was added; endogenous in cells; host or cells: TS1αβ murine T cell line, IL-4-stimulated; anti-Bad immunoprecipitates on Protein A Sepharose
The assay is described as follows: Protein-protein interaction competition in anti-Bad immunoprecipitates, western blot. The format is binding, murine. The settings on record: 1.5 mM peptide, 30 min, room temperature; anti-Bad immunoprecipitates of IL-4-stimulated cells. The procedure:
A) Cytoplasmic extracts from control IL-4-stimulated cells were immunoprecipitated with anti-Bad antibody. The interaction Bcl-xL/PP1c/Bad and Bcl-w/PP1c/Bad was competed with 1.5 mM of R, R*, F or R+F peptides for 30 min at room temperature. Immunoprecipitates were washed, transferred to nitrocellulose and blotted with anti-Bad, anti-PP1c, anti-Bcl-xL and anti-Bcl-w. Similar results were obtained in two independent experiments. For sequence of peptides, see Materials and Methods or FIGS. 5A and 5B.
Cells (1×10^7) were IL-4-stimulated or -deprived and lysed for 20 min at 4° C. in lysis buffer (50 mM Tris HCl pH 8, 1% NP40, 137 mM NaCl, 1 mM MgCl2, 1 mM CaCl2, 10% glycerol and protease inhibitors cocktail). Digitonin or detergent free buffers were also used for immunoprecipitation. […]
(§2) Lysates from IL-4-stimulated cells were immunoprecipitated with anti-Bad antibody and the interaction Bcl-xL/PP1c and Bcl-w/PP1c was competed using R* (NWGRIAAAFSF) (SEQ ID NO: 8), R (NWGRIVAFFSF) (SEQ ID NO: 6) or F (GDEFELRYRRAF) (SEQ ID NO: 7) peptides (FIG. 8A). Bcl-xL, Bcl-w and PP1c were detected in control anti-Bad immunoprecipitates, as well as in anti-Bad immunoprecipitates treated with R* peptide. […] Phosphatase activity was detected in control or R* peptide-treated immunoprecipitates (FIG. 8B), decreasing upon competition of the interaction with F or R peptides. […]

The target of assay [5] is T1, PP1c. The assay is described as follows: Phosphatase activity in peptide-treated Bad immunoprecipitates. It counts as biochemical, murine. Set-up: Lysates from IL-4-stimulated cells were immunoprecipitated with anti-Bad antibody and Protein A Sepharose was added; endogenous in cells; host or cells: TS1αβ murine T cell line, IL-4-stimulated; anti-Bad immunoprecipitates on Protein A Sepharose. Particulars: 1.5 mM peptide, 30 min, room temperature. The protocol:
B) Cytoplasmic lysates from IL-4-stimulated cells were immunoprecipitated with anti-Bad antibody. Immunoprecipitates were treated with 1.5 mM of R, R*, F or R+F peptides for 30 min at room temperature. Immunoprecipitates were washed and phosphatase activity estimated using ^32P phosphorylase a as substrate. Similar results were obtained in two independent experiments.
C) Cytoplasmic lysates from IL-4-stimulated cells were immunoprecipitated with anti-Bad antibody and then treated with 1.5 mM of R+F peptide or 3 mM of R or F peptide (30 min, room temperature). Immunoprecipitates were washed and phosphatase activity estimated as in B.
IL-4-stimulated cells (1×10^7) were lysed in lysis buffer, supernatants were immunoprecipitated with the corresponding antibody, followed by incubation with Protein A Sepharose. […]
as §2
Target sequence in this assay (P62137 2-330 limits assumed): as the sequence (P62137 2-330) above

T2 sequence (P62136 whole entry): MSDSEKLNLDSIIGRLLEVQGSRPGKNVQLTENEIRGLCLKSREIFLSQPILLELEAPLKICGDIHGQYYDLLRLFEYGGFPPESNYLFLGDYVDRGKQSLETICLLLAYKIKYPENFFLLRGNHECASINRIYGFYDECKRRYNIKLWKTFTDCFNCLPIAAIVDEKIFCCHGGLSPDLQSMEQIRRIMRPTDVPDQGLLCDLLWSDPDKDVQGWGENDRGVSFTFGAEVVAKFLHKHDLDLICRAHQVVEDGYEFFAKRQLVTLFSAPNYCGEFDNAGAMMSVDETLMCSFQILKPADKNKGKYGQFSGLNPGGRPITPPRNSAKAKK
T3 sequence (P62137 2-330 limits assumed): as the sequence (P62137 2-330) above

In general, inhibition refers to how much of the control response was suppressed. Regarding `C=C1[C@@H](O)[C@@H]2O[C@]3(CC[C@H](/C=C/[C@@H](C)[C@@H]4CC(C)=C[C@@]5(O[C@H](C[C@@](C)(O)C(=O)O)CC[C@H]5O)O4)O3)CC[C@H]2O[C@@H]1[C@@H](O)C[C@H](C)[C@H]1O[C@@]2(CCCCO2)CC[C@H]1C` [OA, okadaic acid], the “Bad dephosphorylation at serine 136” value with Bad (1 μM OA in the absence of IL-4) was “prevented”. In addition, the “total Bad expression” value in the assay on Bad (after OA treatment (1 μM)) is listed as “No changes”. The “inhibition of phosphatase activity in the supernatant” value in assay [1] was about 50%. In addition, the “fraction of apoptotic cells compared with untreated cells” value with TS1αβ cells is on record as “significant reduction”. Further, at PP1c [2] (10^−6 M OA, Bcl-w or Bad immunoprecipitates), the phosphatase activity result is on record as “strongly reduced”. In addition, at PP1c [2] (10^−8 M OA, Bcl-w or Bad immunoprecipitates), the inhibition at 0.01 µM was about 50%. Besides, the “effect on Bad- or Bcl-w-associated phosphatase activity in vitro” value on PP1c [2] (10^−9 M OA, Bad or Bcl-w immunoprecipitates from IL-4-stimulated cells) is reported as “no effect”.

On to FELRYR, for which the “binding to purified PP1c” value at PP1c [3] is given as “interacts with PP1c”.

For the molecule FETRFR, the “binding to purified PP1c” value on PP1c [3] is recorded as “interacts with PP1c”.

GDEFELRYRRAF [F peptide]: the “amount of Bcl-xL, Bcl-w and PP1c associated to Bad after competition” value in assay [4] is given as “decreases”. In the assay with PP1c [5], the “phosphatase activity in peptide-treated Bad immunoprecipitates” value was “decreasing”.
